PMC9033620 (RSC Advances, 2021)

Molecular target: β-tubulin (Sus scrofa, UniProt P02554+Q2XVP4)
Experiment: X-ray crystal structure
Type: binding

Sequence of β-tubulin (Q2XVP4 whole entry): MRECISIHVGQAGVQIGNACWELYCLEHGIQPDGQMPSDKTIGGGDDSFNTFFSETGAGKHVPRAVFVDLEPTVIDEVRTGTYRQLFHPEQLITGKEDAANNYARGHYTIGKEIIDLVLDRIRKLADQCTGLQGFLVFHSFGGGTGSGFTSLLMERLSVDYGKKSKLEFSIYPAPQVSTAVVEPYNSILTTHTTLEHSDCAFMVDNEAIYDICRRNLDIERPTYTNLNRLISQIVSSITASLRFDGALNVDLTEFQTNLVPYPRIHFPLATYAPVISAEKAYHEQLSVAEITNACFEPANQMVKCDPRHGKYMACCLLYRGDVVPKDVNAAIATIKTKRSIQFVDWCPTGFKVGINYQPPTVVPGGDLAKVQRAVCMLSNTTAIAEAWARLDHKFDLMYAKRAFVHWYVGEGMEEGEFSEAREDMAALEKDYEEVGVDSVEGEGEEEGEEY
Sequence of β-tubulin (P02554 whole entry): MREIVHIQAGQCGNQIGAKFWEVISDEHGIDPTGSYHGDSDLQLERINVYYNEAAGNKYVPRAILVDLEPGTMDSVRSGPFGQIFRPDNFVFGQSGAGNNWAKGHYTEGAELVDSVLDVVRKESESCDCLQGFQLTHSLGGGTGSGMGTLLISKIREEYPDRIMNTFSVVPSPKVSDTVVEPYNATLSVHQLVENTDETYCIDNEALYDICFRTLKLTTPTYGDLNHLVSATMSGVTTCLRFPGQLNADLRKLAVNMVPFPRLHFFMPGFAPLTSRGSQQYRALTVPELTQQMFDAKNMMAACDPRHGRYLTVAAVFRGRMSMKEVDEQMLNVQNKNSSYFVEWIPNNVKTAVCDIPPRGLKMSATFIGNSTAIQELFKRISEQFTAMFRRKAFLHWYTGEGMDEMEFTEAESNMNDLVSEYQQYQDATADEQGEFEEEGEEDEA

CCCCc1ccc2[nH]c(NC(=O)OC)nc2c1 [parbendazole]
Kd: 3.39 µM
